Reference: US20220267445A1, “Methods and Compositions for Determining Susceptibility to Treatment with Checkpoint Inhibitors” (Novocure GmbH, priority 2021, published 2022)

What was measured:
LN428 cells = experiment: DNA content analysis by propidium iodide (PI) staining; format: cell-based, human; details: ribociclib 4.5 μM, 0 and 24 hours
[1] = tested on: U87MG, LN428 and LN827 GBM cells; experiment: TTFields-induced cytosolic micronuclei clusters with cGAS and AIM2 recruitment (immunofluorescence, confocal); format: cell-based, human; details: ribociclib 4.5 μM
Experimental: FIG. 1C, FIG. 1D, FIG. 1E, and FIG. 1F show exemplary confocal images with z stack showing immunofluorescent staining for cGAS, AIM2, and LAMINA/C with DAPI counter-staining in LN428 GBM cells that were pretreated with either the vehicle (FIG. 1C, FIG. 1E) or ribociclib (4.5 μM) (FIG. 1D, FIG. 1F) to induce G1 arrest, then non-treated (FIG. 1C, FIG. 1D) or treated with TTFields for 24 hours (FIG. 1E,
FIG. 1G provides an exemplary bar graph showing percentages of cells with large cytosolic micronuclei clusters with cGAS and AIM2 recruitment being dependent on TTFields in the 3 indicated GBM cell lines treated as described with respect to FIG. 1C, FIG. 1D, FIG. 1E, and FIG. 1F;
To address this question, cells were pretreated for 24 hours prior to and during a 24 hour exposure to TTFields with ribociclib, a potent inhibitor of cyclin-dependent kinases 4 and 6, to induce G1 arrest^31 (FIG. 1H).
Cells grown on cover slips were fixed with 4% paraformaldehyde for 30 min at 4° C., incubated overnight at 4° C. with different combinations of primary antibodies (dilution 1:500) against indicated antigens and then for 2 hours at room temperature with appropriate fluorochrome-conjugated secondary antibodies, (dilution 1:500). Labeled cells were counterstained with DAPI (Thermo Fisher, Cat #D1306) at 1 μgm/ml and images captured and analyzed, using a Zeiss 800 inverted confocal microscope. […]

CN(C)C(=O)c1cc2cnc(Nc3ccc(N4CCNCC4)cn3)nc2n1C1CCCC1 [ribociclib]
G1-S arrest (LN428 cells): effective G1-S arrest | percentage of cells with cGAS and AIM2-recruited micronuclei clusters after TTFields, G1-arrested cells compared to cycling cells ([1]; 24 hours prior to and during 24 hour TTFields (200 kHz), all 3 lines): consistently decreased | cluster formation, ribociclib treatment alone ([1]; no TTFields): did not increase
